For one compound, freezing time and GluN2B expression results are on record in US20250213560A1, “NITROGEN-CONTAINING HETEROCYCLIC COMPOUNDS HAVING PHENYL GROUP AND USES THEREOF” (BNH RESEARCH CO., LTD., priority 2022, published 2025).

Entries after “also recorded” stand apart in the source; their conditions may differ.

Test [1] relates to rodent (rat) model of post-traumatic stress disorder. Kind of test: Post-traumatic stress disorder animal model, freezing time. The format is in vivo. Particulars: PTSD rats, intraperitoneal 25 mg/kg, checked at 3-day intervals, compared to control group. As to the method: The animals were obtained from the DBL. Animals are obtained 7 days before the test start. Twenty male SD-rats aged about 7 weeks were used. Animals were maintained in conventional environmental conditions according to the 12/12 hours light-dark cycle in the colony room, with access to food and water ad libitum. The rats were acclimatized to their new housing cage over a period of 7 days. The animals were carried out for all tests. All experiments were performed in accordance with the Guide for the Care and Use of Laboratory Animals, and all efforts were made to minimize animal suffering. Weight was measured at 3-day intervals from Day 7.
This protocol involves two times exposure to foot shock without an opportunity of escape.
The weight was measured three hours before the experiment. The temperature of the laboratory was maintained at 22° C. The animals were placed in the dark laboratory space for 10 minutes to adapt. The animals were each placed in the first room. […]
The weight was measured three hours before the experiment. […]
For the freezing check, 7 days after the initial foot shock protocol, the rats were placed in the first compartment with sandpaper of the apparatus for 5 minutes (no foot shock) and the freezing behavior was recorded using shutavoid_v1803 program (Panlab, Spain) according to the manufacturer's instruction. […]

The next test deals with GluN2B. In words: GluN2B expression in SH-SY5Y cells. The format is cell-based, human. Particulars: 1 μM, application for 6 and 24 hours. As for the experimental part: Human undifferentiated neuroblastoma cell line SH-SY5Y and human embryonic kidney cell line (HEK)-293T were purchased from Korean Cell Line Bank (Korea) and Takara (Japan), respectively. Cells were grown in HyClone Minimal Essential Medium (MEM) and Dulbecco's Modified Eagle Medium (DMEM), respectively, supplemented with 10% (v/v) fetal bovine serum (FBS), penicillin (100 U/mL), and streptomycin ([…]). Cells were maintained in a humidified atmosphere of 95% air and 5% CO2 at 37° C. Cells were passaged 10 times at maximum. Cells were dissociated using 0.05% trypsin-EDTA solution and the cells were seeded in new culture dishes for maintenance.
RT-PCR was used to measure the amount of BDNF and GluN2B in response to compounds of the present disclosure. 293T cells were dissociated using 0.05% Trypsin-EDTA solution and seeded in 24 well or 6 well dishes for RNA work. After incubation at 37° C. in a humidified atmosphere with 5% CO2 for 24 hours, the culture medium was replaced by a medium containing a series of concentrations of tested compounds diluted with the DMEM without FBS. Time course experiments were performed. The same volume of DMSO was used for negative control.
Similarly, BnH12003 (1 μM) augmented BDNF and GluN2B expression by application for 6 and 24 hours in SH-SY5Y cells (FIGS. 11A and 11B).

As to `C[C@H]1CC[C@@H](C(=O)O)CN1C(=O)Cc1ccc(-c2cncnc2)cc1` [BnH12003, (3R,6S)-6-methyl-1-(2-(4-(pyrimidin-5-yl)phenyl)acetyl) piperidine-3-carboxylic acid], the freezing time entry in test [1] was “liberated such rodents from trauma at a significantly faster rate; also recorded: significant decrease in freezing time”. Also, in the test with GluN2B, the GluN2B expression entry is “augmented”.
